Marks after values point to notes of the source that are not given here.
What was measured:
[1] = system: Burkholderia cepacia (ATCC 25416); experiment: Reduction of bacterial load by adding CO2 in a pressurized vessel (whipped cream dispenser), plate count after 72 hr; type: cell-based; details: for Recovered Bacteria, Average CFU/mL, With CO2: 72 hr, 25° C., n = 3
Method: Burkholderia cepacia (ATCC 25416) was grown overnight in 40 mL trypticase soy broth in 250 mL bottle shaken at 100 RPM at 30° C. […] 100 mL of either solution were placed in a whipped cream dispenser (670 mL total volume container), and then different amounts of carbon dioxide (CO2) were injected into the container.
100 mL of each solution were then placed in a 150 mL sterile plastic bottle (untreated control). Both samples were placed on a wrist action shaker for 2 hr at 100 rpm at room temperature (25° C.), and then placed on an orbital shaker for 70 hr at 100 rpm at room temperature (25° C.). The total time each sample was at room temperature (25° C.) was 72 hr. After 72 hr, each sample was plated on trypticase soy agar to enumerate bacterial growth after contact period.

[2] = system: Burkholderia cepacia ATCC 25416; experiment: Reduction of bacterial load by continuous addition of CO2, plate count after contact time; type: cell-based; details: n = 2
Method: Each microbe was grown in specified growth conditions (Table 7) using 40 mL of broth media in a sterile 250 mL bottle shaken at 100 RPM. Each microbe was subcultured from broth culture to an agar plate and incubated in specified growth conditions (Table 7). […] 20 mL of reverse osmosis water solution with bacteria was dispensed to a 25 mL hydrothermal synthesis autoclave reactor vessel (25 mL total volume vessel) attached to a continuous CO2 delivery system. The vessels were left connected to the CO2 delivery system at specific contact times at room temperature (25-27° C.). 20 mL of reverse osmosis water with bacteria and filter sterilized reverse osmosis water (no bacteria) were placed in a 150 mL sterile plastic bottle (untreated controls). The untreated controls were left for the same contact time at room temperature (25-27° C.) as CO2 treated vessels. Each microorganism was plated on specified agar media (Table 7) to enumerate bacteria after contact period. Tables 8-10 show the bacterial load reduction achieved after continuous addition of pressurized gas comprising CO2 to contaminated reverse osmosis water or a contaminated solution of reverse osmosis water and Triton X-100.

[3] = system: Candida albicans ATCC 10231; experiment: Reduction of microorganism load by continuous addition of CO2, plate count after contact time; type: cell-based; details: 300 psi CO2 continuously, reverse osmosis water, n = 2
Method: (§1) Each microbe was grown in specified growth conditions (Table 7) using 40 mL of broth media in a sterile 250 mL bottle shaken at 100 RPM. Each microbe was subcultured from broth culture to an agar plate and incubated in specified growth conditions (Table 7). 100 μL of bacterial or fungal suspension matching the turbidity of a 0.5 or 1 MacFarland Standard were added to 100 mL of filter-sterilized reverse osmosis water (final concentration approximately 1×10^6 or 5×10^1 CFU/mL). 20 mL of reverse osmosis water solution with bacteria was dispensed to a 25 mL hydrothermal synthesis autoclave reactor vessel (25 mL total volume vessel) attached to a continuous CO2 delivery system. The vessels were left connected to the CO2 delivery system at specific contact times at room temperature (25-27° C.). 20 mL of reverse osmosis water with bacteria and filter sterilized reverse osmosis water (no bacteria) were placed in a 150 mL sterile plastic bottle (untreated controls). The untreated controls were left for the same contact time at room temperature (25-27° C.) as CO2 treated vessels. Each microorganism was plated on specified agar media (Table 7) to enumerate bacteria after contact period. Tables 8-10 show the bacterial load reduction achieved after continuous addition of pressurized gas comprising CO2 to contaminated reverse osmosis water or a contaminated solution of reverse osmosis water and Triton X-100.

[4] = system: Escherichia coli ATCC 8739; experiment: as above; type: cell-based; details: 300 psi CO2 continuously, reverse osmosis water, n = 2
Method: as §1

[5] = system: Pseudomonas aeruginosa ATCC 9027; experiment: as above; type: cell-based; details: 300 psi CO2 continuously, reverse osmosis water, n = 2
Method: as §1

[6] = system: Staphylococcus aureus ATCC 6538; experiment: as above; type: cell-based; details: 300 psi CO2 continuously, reverse osmosis water, n = 2
Method: as §1

[7] = pH measurements of preservative free wet wipe formulation after addition of CO2 and exposure to 1 atm (FIG. 5); type: physicochemical
Method: FIG. 5 is an exemplary embodiment depicting a graph of pH measurements of 100 mL of preservative free wet wipe formulation after addition of 8.2 g of CO2, and subsequent exposure to 1 atm (20° C.) in accordance with the present disclosure.

In the case of `O=C=O` [CO2, carbon dioxide], the “Recovered Bacteria, Average CFU/mL, With CO2” value (“Recovered Bacteria” for short) ([1]; 8.2 g of CO2 to 100 mL preservative-free wet wipe formulation, approximately 1 × 10^6 CFU/mL) is reported as <10 CFU/mL, the “Recovered Bacteria” value ([1]; 8.2 g of CO2 to 100 mL reverse osmosis water, approximately 1 × 10^6 CFU/mL) is reported as 1.1 × 10^3 CFU/mL and the “Recovered Bacteria” value ([1]; 8.2 g of CO2 to 100 mL reverse osmosis water, approximately 5 × 10^1 CFU/mL) is reported as <10 CFU/mL. The “Recovered Bacteria” value ([1]; 16.0 g of CO2 to 100 mL reverse osmosis water, approximately 1 × 10^5 CFU/mL) was <10 CFU/mL, the “Recovered Bacteria” value ([1]; 23.7 g of CO2 to 100 mL reverse osmosis water, approximately 1 × 10^5 CFU/mL) was <10 CFU/mL and the “Microbial growth compared to no added CO2” value ([1]; pressurized gas comprising carbon dioxide added to contaminated preservative-free wet wipe formulation) was “greatly reduced microbial growth”. For the same compound, the “Microbial growth compared to no added CO2” value ([1]; pressurized gas comprising carbon dioxide added to contaminated water) was “greatly reduced microbial growth”, the “Average Recovered CFU/mL, With CO2” value ([2]; 100 psi CO2 continuously, reverse osmosis water and 0.2% (v/v) Triton X-100, approximately 1.0 × 10^4 inoculum, 15 minutes) was 2.1 × 10^3 CFU/mL and the “Average Recovered CFU/mL, With CO2” value ([2]; 100 psi CO2 continuously, reverse osmosis water and 0.2% (v/v) Triton X-100, approximately 1.0 × 10^4 inoculum, 30 minutes) was 1.2 × 10^3 CFU/mL. For the same compound, the “Average Recovered CFU/mL, With CO2” value ([2]; 100 psi CO2 continuously, reverse osmosis water and 0.2% (v/v) Triton X-100, approximately 1.0 × 10^4 inoculum, 60 minutes) was 6.3 × 10^2 CFU/mL, the “Average Recovered CFU/mL (Standard Deviation), With CO2” value ([2]; 300 psi CO2 continuously, 20 mL reverse osmosis water, 0.5 hours) was 5.0 × 10^5 (1.0 × 10^5) CFU/mL and the “Average Recovered CFU/mL (Standard Deviation), With CO2” value ([2]; 300 psi CO2 continuously, 20 mL reverse osmosis water, 1 hour) was 4.5 × 10^5 (2.5 × 10^5) CFU/mL. The “Average Recovered CFU/mL (Standard Deviation), With CO2” value ([2]; 300 psi CO2 continuously, 20 mL reverse osmosis water, 1.5 hours) was 5.0 × 10^5 (2.0 × 10^5) CFU/mL, the “Average Recovered CFU/mL (Standard Deviation), With CO2” value ([2]; 300 psi CO2 continuously, 20 mL reverse osmosis water, 2 hours) was 3.1 × 10^4 (7.0 × 10^3) CFU/mL and the “Average Recovered CFU/mL (Standard Deviation), With CO2” value ([2]; 300 psi CO2 continuously, 20 mL reverse osmosis water, 2.5 hours) was 8.0 × 10^3 (2.0 × 10^3) CFU/mL. The “Average Recovered CFU/mL (Standard Deviation), With CO2” value ([2]; 300 psi CO2 continuously, 20 mL reverse osmosis water, 3 hours) was <1 (n/a) CFU/mL, the “Average Recovered CFU/mL (Standard Deviation), With CO2” value ([2]; 300 psi CO2 continuously, 20 mL reverse osmosis water, 6 hours) was <1 (n/a) CFU/mL and the “Average Recovered CFU/mL (Standard Deviation), With CO2” value ([2]; 300 psi CO2 continuously, 20 mL reverse osmosis water, 24 hours) was <1 (n/a) CFU/mL. For the same compound, the “Average Recovered CFU/mL (Standard Deviation), With CO2” value ([2]; Table 9: 100 psi CO2 (approx. 0.231 mol/L), reverse osmosis water, 2 hours) was 2.3 × 10^4 (1.0 × CFU/mL, the “Average Recovered CFU/mL (Standard Deviation), With CO2” value ([2]; Table 9: 100 psi CO2 (approx. 0.231 mol/L), reverse osmosis water, 4 hours) was 1.2 × 10^4 (4.0 × CFU/mL and the “Average Recovered CFU/mL (Standard Deviation), With CO2” value ([2]; Table 9: 100 psi CO2 (approx. 0.231 mol/L), reverse osmosis water, 6 hours) was 1.2 × 10^4 (3.5 × CFU/mL. The “Average Recovered CFU/mL (Standard Deviation), With CO2” value ([2]; Table 9: 200 psi CO2 (approx. 0.463 mol/L), reverse osmosis water, 2 hours) was 1.2 × 10^3 (1.5 × CFU/mL, the “Average Recovered CFU/mL (Standard Deviation), With CO2” value ([2]; Table 9: 200 psi CO2 (approx. 0.463 mol/L), reverse osmosis water, 4 hours) was 1.0 × 10^2 (1.0 × CFU/mL and the “Average Recovered CFU/mL (Standard Deviation), With CO2” value ([2]; Table 9: 200 psi CO2 (approx. 0.463 mol/L), reverse osmosis water, 6 hours) was 1.4 × 10^1 (<10) CFU/mL. The “Average Recovered CFU/mL (Standard Deviation), With CO2” value ([2]; Table 9: 300 psi CO2 (approx. 0.694 mol/L), reverse osmosis water, 2 hours) was 9.0 × 10^2 (1.0 × CFU/mL, the “Average Recovered CFU/mL (Standard Deviation), With CO2” value ([2]; Table 9: 300 psi CO2 (approx. 0.694 mol/L), reverse osmosis water, 4 hours) was 5.0 × 10^1 (5.0 × CFU/mL and the “Average Recovered CFU/mL (Standard Deviation), With CO2” value ([2]; Table 9: 300 psi CO2 (approx. 0.694 mol/L), reverse osmosis water, 6 hours) was <10 (n/a) CFU/mL. For the same compound, the “Average Recovered CFU/mL, With CO2” value ([2]; Table 10: 300 psi CO2 continuously, reverse osmosis water, 2 Hours) was 1.3 × 10^3 CFU/mL, the “Average Recovered CFU/mL, With CO2” value ([2]; Table 10: 300 psi CO2 continuously, reverse osmosis water, 4 Hours) was 2.5 × 10^1 CFU/mL and the “Average Recovered CFU/mL, With CO2” value ([2]; Table 10: 300 psi CO2 continuously, reverse osmosis water, 6 Hours) was <10 CFU/mL. For the same compound, the “Average Recovered CFU/mL, With CO2” value ([3]; 2 Hours) was 5.3 × 10^2 CFU/mL, the “Average Recovered CFU/mL, With CO2” value ([3]; 4 Hours) was 1.0 × 10^2 CFU/mL and the “Average Recovered CFU/mL, With CO2” value ([3]; 6 Hours) was <10 CFU/mL. For the same compound, the “Average Recovered CFU/mL, With CO2” value ([4]; 2 Hours) was 1.0 × 10^3 CFU/mL, the “Average Recovered CFU/mL, With CO2” value ([4]; 4 Hours) was 2.5 × 10^2 CFU/mL and the “Average Recovered CFU/mL, With CO2” value ([4]; 6 Hours) was <10 CFU/mL. The “Average Recovered CFU/mL, With CO2” value ([5]; 2 Hours) was 3.5 × 10^2 CFU/mL, the “Average Recovered CFU/mL, With CO2” value ([5]; 4 Hours) was <10 CFU/mL and the “Average Recovered CFU/mL, With CO2” value ([5]; 6 Hours) was <10 CFU/mL. For the same compound, the “Average Recovered CFU/mL, With CO2” value ([6]; 2 Hours) was 6.0 × 10^2 CFU/mL, the “Average Recovered CFU/mL, With CO2” value ([6]; 4 Hours) was 1.3 × 10^2 CFU/mL and the “Average Recovered CFU/mL, With CO2” value ([6]; 6 Hours) was <10 CFU/mL. For the same compound, the “Reduction of pH of wet wipe formulation” value ([7]; 100 mL preservative free wet wipe formulation after addition of 8.2 g of CO2 (FIG. 5)) was “approximately 0.20 pH units” and the “Dissipation of solubilized CO2 from wet wipe formulation” value ([7]; after exposure to atmospheric conditions (1 atm, 20° C.; FIG. 5)) was “quickly dissipated”.

Reference: patent publication US20240057591A1, “ANTIMICROBIAL WET WIPES” (Kimberly-Clark Worldwide, Inc., priority 2021, published 2024)
